Data published in ChEMBL document CHEMBL1649485, “High prevalence of qnr genes in commensal enterobacteria from healthy children in Peru and Bolivia” (2009).
In brackets after ≈: the same amount, converted by molar mass.

Key:
Escherichia coli [1] = assay: Antimicrobial activity against qnrS-positive Escherichia coli clinical isolate by agar dilution method; format: functional
Klebsiella pneumoniae [2] = assay: Antimicrobial activity against Klebsiella pneumoniae isolate Y1 harboring qnrB19 gene by agar dilution method; format: functional
Escherichia coli [3] = assay: Antimicrobial activity against Escherichia coli isolate M2 harboring qnrS1 gene by agar dilution method; format: functional
Escherichia coli [4] = assay: Antimicrobial activity against qnrS-positive Escherichia coli clinical isolate assessed as susceptible isolate; format: functional
Escherichia coli [5] = assay: Antimicrobial activity against qnrS-positive Escherichia coli clinical isolate assessed as resistant isolate; format: functional
Enterobacter cloacae [6] = assay: Antimicrobial activity against Enterobacter cloacae clinical isolate assessed as resistant isolate; format: functional
Klebsiella pneumoniae [7] = assay: Antimicrobial activity against qnrB-positive Klebsiella pneumoniae clinical isolate assessed as susceptible isolate; format: functional
Klebsiella oxytoca [8] = assay: Antimicrobial activity against Klebsiella oxytoca isolate M1 harboring qnrB19 gene by agar dilution method; format: functional
Escherichia coli [9] = assay: Antimicrobial activity against Escherichia coli isolate M3 harboring qnrS1 gene by agar dilution method; format: functional
Klebsiella oxytoca [10] = assay: Antimicrobial activity against Klebsiella oxytoca clinical isolate assessed as susceptible isolate; format: functional; settings: pooled result: one value given for 4 cell lines, strains, targets or settings
Citrobacter freundii [11] = assay: Antimicrobial activity against Citrobacter freundii clinical isolate by agar dilution method; format: functional
Klebsiella oxytoca [12] = assay: Antimicrobial activity against Klebsiella oxytoca clinical isolate assessed as resistant isolate; format: functional
Klebsiella pneumoniae [13] = assay: Antimicrobial activity against Klebsiella pneumoniae isolate V2 harboring qnrS1 gene by agar dilution method; format: functional
Klebsiella pneumoniae [14] = assay: Antimicrobial activity against Klebsiella pneumoniae isolate C2 harboring qnrS1 gene by agar dilution method; format: functional
Klebsiella pneumoniae [15] = assay: Antimicrobial activity against qnrB-positive Klebsiella pneumoniae clinical isolate assessed as resistant isolate; format: functional
Escherichia coli [16] = assay: Antimicrobial activity against Escherichia coli isolate C1 harboring qnrB19 gene by agar dilution method; format: functional
Klebsiella pneumoniae [17] = assay: microbe, parasite or virus in culture; settings: isolate V1
Description: Antimicrobial activity against Klebsiella pneumoniae isolate V1 harboring qnrB2 gene by agar dilution method

Escherichia coli [18] = assay: Antimicrobial activity against qnrB-positive Escherichia coli clinical isolate assessed as resistant isolate; format: functional
Klebsiella pneumoniae [19] = assay: Antimicrobial activity against qnrS-positive Klebsiella pneumoniae clinical isolate by agar dilution method; format: functional
Klebsiella pneumoniae [20] = assay: Antimicrobial activity against Klebsiella pneumoniae isolate M1 harboring qnrB19 gene by agar dilution method; format: functional
Escherichia coli [21] = assay: Antimicrobial activity against qnrB/S-positive Escherichia coli clinical isolate assessed as susceptible isolate; format: functional
Klebsiella pneumoniae [22] = assay: Antimicrobial activity against qnrS-positive Klebsiella pneumoniae clinical isolate assessed as susceptible isolate; format: functional
Klebsiella oxytoca [23] = assay: Antimicrobial activity against Klebsiella oxytoca clinical isolate by agar dilution method; format: functional
Escherichia coli [24] = assay: Antimicrobial activity against qnrB-positive Escherichia coli clinical isolate assessed as susceptible isolate; format: functional
Escherichia coli [25] = assay: Antimicrobial activity against qnrB/S-positive Escherichia coli clinical isolate by agar dilution method; format: functional
Escherichia coli [26] = assay: Antimicrobial activity against Escherichia coli isolate V1 harboring qnrB19 gene by agar dilution method; format: functional
Klebsiella oxytoca [27] = assay: Antimicrobial activity against Klebsiella oxytoca isolate M2 harboring qnrS1 gene by agar dilution method; format: functional
Escherichia hermannii [28] = assay: Antimicrobial activity against Escherichia hermannii clinical isolate by agar dilution method; format: functional; settings: Atlantibacter hermannii
Klebsiella pneumoniae [29] = assay: microbe, parasite or virus in culture; settings: isolate M2
Description: Antimicrobial activity against Klebsiella pneumoniae isolate M2 harboring qnrS1 gene by agar dilution method

Escherichia hermannii [30] = assay: Antimicrobial activity against Escherichia hermannii clinical isolate assessed as resistant isolate; format: functional, Atlantibacter hermannii
Escherichia coli [31] = assay: Antimicrobial activity against qnrB-positive Escherichia coli clinical isolate by agar dilution method; format: functional
Citrobacter freundii [32] = assay: Antimicrobial activity against Citrobacter freundii isolate V1 harboring qnrB10 gene by agar dilution method; format: functional
Klebsiella pneumoniae [33] = assay: Antimicrobial activity against qnrS-positive Klebsiella pneumoniae clinical isolate assessed as resistant isolate; format: functional
Citrobacter freundii [34] = assay: Antimicrobial activity against Citrobacter freundii clinical isolate assessed as resistant isolate; format: functional
Escherichia coli [35] = assay: Antimicrobial activity against Escherichia coli isolate M1 harboring qnrB19 gene by agar dilution method; format: functional
Escherichia coli [36] = assay: Antimicrobial activity against qnrB/S-positive Escherichia coli clinical isolate assessed as resistant isolate; format: functional
Klebsiella pneumoniae [37] = assay: Antimicrobial activity against qnrB-positive Klebsiella pneumoniae clinical isolate by agar dilution method; format: functional
Escherichia coli [38] = assay: Antimicrobial activity against Escherichia coli isolate Y1 harboring qnrB19 gene by agar dilution method; format: functional
Escherichia coli [39] = assay: Antimicrobial activity against Escherichia coli isolate Y2 harboring qnrS1 gene by agar dilution method; format: functional
Enterobacter cloacae [40] = assay: Antimicrobial activity against Enterobacter cloacae clinical isolate by agar dilution method; format: functional
Escherichia hermannii [41] = assay: Antimicrobial activity against Escherichia hermannii isolate C1 harboring qnrB19 gene by agar dilution method; format: functional; settings: Atlantibacter hermannii
Enterobacter cloacae [42] = assay: Antimicrobial activity against Enterobacter cloacae isolate V1 harboring qnrB2 gene by agar dilution method; format: functional
Klebsiella pneumoniae [43] = assay: Antimicrobial activity against Klebsiella pneumoniae isolate Y2 harboring qnrS1 gene by agar dilution method; format: functional
Escherichia coli [44] = assay: Antimicrobial activity against Escherichia coli isolate Y3 harboring qnrS1 gene by agar dilution method; format: functional

SMILES: CCn1cc(C(=O)O)c(=O)c2ccc(C)nc21 [NALIDIXIC ACID]
- MIC (Escherichia coli [1]): 16 µg/mL (≈ 68.9 µM)
- MIC (Klebsiella pneumoniae [2]): 64 µg/mL (≈ 276 µM)
- MIC (Escherichia coli [3]): 16 µg/mL (≈ 68.9 µM)
- Activity (Escherichia coli [4]): 100%
- Activity (Escherichia coli [5]): 0%
- Activity (Enterobacter cloacae [6]): 57%
- Activity (Klebsiella pneumoniae [7]): 20%
- MIC (Klebsiella oxytoca [8]): 16 µg/mL (≈ 68.9 µM)
- MIC (Escherichia coli [9]): 32 µg/mL (≈ 138 µM)
- Activity (Klebsiella oxytoca [10]): 43%
- MIC (Citrobacter freundii [11]): 16 µg/mL (≈ 68.9 µM)
- Activity (Klebsiella oxytoca [12]): 57%
- MIC (Klebsiella pneumoniae [13]): 16 µg/mL (≈ 68.9 µM)
- MIC (Klebsiella pneumoniae [14]): 32 µg/mL (≈ 138 µM)
- Activity (Klebsiella pneumoniae [15]): 80%
- MIC (Escherichia coli [16]): 32 µg/mL (≈ 138 µM)
- MIC (Klebsiella pneumoniae [17]): 32 µg/mL (≈ 138 µM)
- Activity (Escherichia coli [18]): 87%
- MIC (Klebsiella pneumoniae [19]): 16 µg/mL (≈ 68.9 µM)
- MIC (Klebsiella pneumoniae [20]): 32 µg/mL (≈ 138 µM)
- Activity (Escherichia coli [21]): 50%
- Activity (Klebsiella pneumoniae [22]): 13%
- MIC (Klebsiella oxytoca [23]): 16 µg/mL (≈ 68.9 µM)
- Activity (Escherichia coli [24]): 13%
- MIC (Escherichia coli [25]): 16 µg/mL (≈ 68.9 µM)
- MIC (Escherichia coli [26]): 32 µg/mL (≈ 138 µM)
- MIC (Klebsiella oxytoca [27]): > 128 µg/mL
- MIC (Escherichia hermannii [28]): 16 µg/mL (≈ 68.9 µM)
- MIC (Klebsiella pneumoniae [29]): 32 µg/mL (≈ 138 µM)
- Activity (Escherichia hermannii [30]): 57%
- MIC50 (Escherichia coli [31]): 32 µg/mL (≈ 138 µM)
- MIC90 (Escherichia coli [31]): > 128 µg/mL
- MIC (Citrobacter freundii [32]): 16 µg/mL (≈ 68.9 µM)
- Activity (Klebsiella pneumoniae [33]): 87%
- Activity (Citrobacter freundii [34]): 57%
- MIC (Escherichia coli [35]): 16 µg/mL (≈ 68.9 µM)
- Activity (Escherichia coli [36]): 50%
- MIC (Klebsiella pneumoniae [37]): 16 µg/mL (≈ 68.9 µM)
- MIC (Escherichia coli [38]): 32 µg/mL (≈ 138 µM)
- MIC (Escherichia coli [39]): 16 µg/mL (≈ 68.9 µM)
- MIC (Enterobacter cloacae [40]): 16 µg/mL (≈ 68.9 µM)
- MIC (Escherichia hermannii [41]): 32 µg/mL (≈ 138 µM)
- MIC (Enterobacter cloacae [42]): 32 µg/mL (≈ 138 µM)
- MIC (Klebsiella pneumoniae [43]): 32 µg/mL (≈ 138 µM)
- MIC (Escherichia coli [44]): 16 µg/mL (≈ 68.9 µM)

SMILES: O=C(O)c1cn(C2CC2)c2cc(N3CCNCC3)c(F)cc2c1=O [CIPROFLOXACIN]
- MIC (Klebsiella pneumoniae [2]): 2 µg/mL (≈ 6.04 µM)
- MIC (Klebsiella pneumoniae [14]): 2 µg/mL (≈ 6.04 µM)
- MIC (Klebsiella pneumoniae [20]): 2 µg/mL (≈ 6.04 µM)
- MIC (Klebsiella oxytoca [27]): 4 µg/mL (≈ 12.1 µM)
- MIC (Klebsiella pneumoniae [29]): 4 µg/mL (≈ 12.1 µM)

SMILES: C[C@H]1COc2c(N3CCN(C)CC3)c(F)cc3c(=O)c(C(=O)O)cn1c23.C[C@H]1COc2c(N3CCN(C)CC3)c(F)cc3c(=O)c(C(=O)O)cn1c23.O [LEVOFLOXACIN]
- Activity (Escherichia coli [4]): 100%
- Activity (Escherichia coli [5]): 0%
- Activity (Enterobacter cloacae [6]): 0%
- Activity (Klebsiella pneumoniae [7]): 100%
- MIC (Klebsiella oxytoca [8]): 0.5 µg/mL
- MIC (Escherichia coli [9]): 2 µg/mL
- Activity (Klebsiella oxytoca [10]): 71%
- MIC (Citrobacter freundii [11]): 0.25 µg/mL
- Activity (Klebsiella oxytoca [12]): 0%
- MIC (Klebsiella pneumoniae [13]): 2 µg/mL
- MIC (Klebsiella pneumoniae [14]): 2 µg/mL
- Activity (Klebsiella pneumoniae [15]): 0%
- Activity (Escherichia coli [18]): 4%
- MIC (Klebsiella pneumoniae [20]): 2 µg/mL
- Activity (Escherichia coli [21]): 100%
- Activity (Klebsiella pneumoniae [22]): 87%
- MIC (Klebsiella oxytoca [23]): 0.25 µg/mL
- Activity (Escherichia coli [24]): 79%
- MIC (Klebsiella oxytoca [27]): 4 µg/mL
- MIC (Escherichia hermannii [28]): 0.25 µg/mL
- Activity (Escherichia hermannii [30]): 0%
- MIC50 (Escherichia coli [31]): 1 µg/mL
- MIC90 (Escherichia coli [31]): 4 µg/mL
- MIC (Citrobacter freundii [32]): 0.5 µg/mL
- Activity (Klebsiella pneumoniae [33]): 13%
- Activity (Citrobacter freundii [34]): 0%
- Activity (Escherichia coli [36]): 0%
- MIC (Enterobacter cloacae [40]): 0.25 µg/mL
- MIC (Escherichia hermannii [41]): 0.25 µg/mL
- MIC (Enterobacter cloacae [42]): 2 µg/mL
- MIC (Klebsiella pneumoniae [43]): 2 µg/mL
